The assay deals with T1, Recombinant human LTC4 synthase (Homo sapiens, UniProt Q16873).
T1 construct: made in house; host or cells: Pichia pastoris ('Piccia pastoralis' [sic])
T1 sequence (Q16873 1-150): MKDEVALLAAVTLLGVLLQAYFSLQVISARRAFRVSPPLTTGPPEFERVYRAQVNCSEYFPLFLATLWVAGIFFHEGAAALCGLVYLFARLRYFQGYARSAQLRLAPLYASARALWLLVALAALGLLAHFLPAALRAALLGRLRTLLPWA
Kind of assay: LTC4 synthase assay (conversion of LTA4 methyl ester to LTC4 methyl ester, HPLC). In kind it is biochemical. As to conditions: biological test described above; PBS pH 7.4 with 5 mM GSH, substrate LTA4 methyl ester. The procedure:
In the assay LTC4 synthase catalyses the reaction where the substrate LTA4 methyl ester is converted to LTC4 methyl ester. Recombinant human LTC4 synthase is expressed in Piccia pastoralis and the purified enzyme is dissolved in 25 mM Tris-buffer pH 7.8 and stored at −20° C. The assay is performed in phosphate buffered saline (PBS) pH 7.4, supplemented with 5 mM glutathione (GSH). The reaction is terminated by addition of acetonitrile/MeOH/acetic acid (50/50/1). The assay is performed at it in 96-well plates. Analysis of the formed LTC4 methyl ester is performed with reversed phase HPLC (Waters 2795 utilizing an Onyx Monolithic C18 column). The mobile phase consists of acetonitrile/MeOH/H2O (32.5/30/37.5) with 1% acetic acid pH adjusted with NH3 to pH 5.6, and absorbance measured at 280 nm with a Waters 2487 UV-detector.
The following is added chronologically to each well: • 1. 50 μl assay buffer, PBS with 5 mM GSH. • 2. 0.5 μl inhibitor in DMSO. • 3. 2 μl LTC4 synthase in PBS. The total protein concentration in this solution is 0.025 mg/ml. Incubation of the plate at room temperature for 10 minutes. • 4. 0.5 μl LTA4 methyl ester. Incubation of the plate at it for 1 min. • 5. 50 μl stop solution. 80 μl of the incubation mixture is analysed with HPLC.

pIC50: −log10 of the molar value.

As usually defined, the pIC50 is the IC50 on a negative log10 scale, so that one unit is a factor of ten. In the case of `Nc1ccc(Cc2ccc(Nc3ccc(F)c(Cl)c3)c(C(=O)O)c2)cc1C(=O)O` [Example 6, 2-amino-5-(3-carboxy-4-(3-chloro-4-fluorophenylamino)benzyl)benzoic acid], the negative logarithm of the IC50 (pIC50) is 5.24. The result for `Nc1ccc(Cc2ccc(Nc3ccc(Br)cc3F)c(C(=O)O)c2)cc1C(=O)O` [Example 8, 2-amino-5-(4-(4-bromo-2-fluorophenyl-amino)-3-carboxybenzyl)benzoic acid] reads 6.13; that for `O=C(O)c1ccccc1Nc1ccc(Cc2ccc(Nc3ccccc3C(=O)O)c(C(=O)O)c2)cc1C(=O)O` [Example 9, 5,5′-methylenebis(2-(2-carboxyphenyl-amino)benzoic acid)], 5.47. As for `Nc1ccc(Cc2ccc(Nc3ccc(F)cc3)c(C(=O)O)c2)cc1C(=O)O` [Example 12, 2-amino-5-(3-carboxy-4-(4-fluoro-phenylamino)benzyl)benzoic acid], the figure is 5.55; as for `CC(C)Oc1ccc(Nc2ccc(Cc3ccc(N)c(C(=O)O)c3)cc2C(=O)O)cc1` [Example 27, 2-amino-5-(3-carboxy-4-(4-isopropoxy-phenylamino)benzyl)benzoic acid], 5.19; as for `COc1cccc(NC(=O)Nc2ccc(Cc3ccc(NC(=O)Nc4cccc(OC)c4)c(C(=O)O)c3)cc2C(=O)O)c1` [Example 55, 5,5′-methylenebis-(2-(3-(3-methoxyphenyl)-ureido)benzoic acid)], 5.74.

On to `O=C(Nc1ccccc1F)Nc1ccc(Cc2ccc(NC(=O)Nc3ccccc3F)c(C(=O)O)c2)cc1C(=O)O` [Example 57, 5,5′-methylenebis-(2-(3-(2-fluorophenyl)-ureido)benzoic acid)], for which the negative logarithm of the IC50 (pIC50) was 5.40.

Regarding `O=C(Nc1ccc(Cc2ccc(NC(=O)Nc3c(Cl)cccc3Cl)c(C(=O)O)c2)cc1C(=O)O)Nc1c(Cl)cccc1Cl` [Example 62, 5,5′-methylenebis-(2-(3-(2,6-dichlorophenyl)-ureido)benzoic acid)], the pIC50 is 5.24. As for `CC(=O)Nc1ccc(S(=O)(=O)Nc2ccc(Cc3ccc(NS(=O)(=O)c4ccc(NC(C)=O)c(Cl)c4)c(C(=O)O)c3)cc2C(=O)O)cc1Cl` [Example 67, 5,5′-methylenebis(2-(4-acetamido-3-chlorophenylsulfonamido)benzoic acid)], the figure is 5.55; as for `O=C(O)c1cc(Cc2ccc(NS(=O)(=O)c3ccccc3C(F)(F)F)c(C(=O)O)c2)ccc1NS(=O)(=O)c1ccccc1C(F)(F)F` [Example 69, 5,5′-methylenebis(2-(2-(trifluoromethyl)phenylsulfonamido)benzoic acid)], 5.89; as for `O=C(O)c1cc(Cc2ccc(NS(=O)(=O)c3cc(C(F)(F)F)cc(C(F)(F)F)c3)c(C(=O)O)c2)ccc1NS(=O)(=O)c1cc(C(F)(F)F)cc(C(F)(F)F)c1` [Example 74, 5,5′-methylenebis(2-(3,5-bis(trifluoromethyl)-phenylsulfonamido)benzoic acid)], 6.15. As for `Cc1ccc(CNc2ccc(Cc3ccc(NCc4ccc(C)cc4)c(C(=O)O)c3)cc2C(=O)O)cc1` [Example 89, 5-(3-Carboxy-4-(4-methyl-benzylamino)-benzyl)-2-(4-methyl-benzylamino)-benzoic acid], the figure is 5.47; as for `O=C(O)c1cc(Cc2ccc(NCc3cccc(OCc4ccccc4)c3)c(C(=O)O)c2)ccc1NCc1cccc(OCc2ccccc2)c1` [Example 93], 5.64.

The values above are taken from patent publication US20100144872A1, “New Methylenebisphenyl Compounds Useful in the Treatment of Inflammation” (Biolipox AB, priority 2007, published 2010).
